Data: US11965180B2, “Cancer stem cell population and method for production thereof” (CHUGAI SEIYAKU KABUSHIKI KAISHA, priority 2010, dated 2024)

How the values were obtained:
Assay type in all cases: cell-based, human
[1] = tested on: Lgr5-positive colon cancer stem cells; experiment: Lgr5 expression in adherent cancer stem cells after chemotherapeutic agent treatment (flow cytometry); settings: after 3 days of exposing Lgr5-positive colon cancer stem cells to 10 μg/ml
Experimental: Gray indicates fluorescence intensity or ALDH activity after staining cells with the antibodies described. White indicates fluorescence intensity or ALDH activity of an ALDH inhibitor after staining cells with a control isotype antibody.
CSC was incubated with a labeled antibody and analyzed using EPICS ALTRA (Beckman Coulter) and FACSCalibur (Becton Dickinson). The antibodies used were PE-labeled mouse anti-human CD133 (Miltenyi Biotec), PE-labeled mouse anti-human CD44 (BD Pharmingen), FITC-labeled mouse anti-human CD326 (EpCAM) (Miltenyi Biotec), PE-labeled mouse anti-human CD166 (R & D Systems), PE-labeled mouse anti-human CD24 (BD Pharmingen), PE-labeled mouse anti-human CD26 (BD Pharmingen), and PE-labeled mouse anti-human CD29 (BD Pharmingen) antibodies.
Subsequently, the CSC was incubated with a mouse anti-human Lgr5 antibody (2T15E-2) and then a PR-labeled rat anti-mouse IgG (Invitrogen) antibody for Lgr5 staining. Aldehyde dehydrogenase activity was measured using the AldeFluor Kit (Stemcell Technologies). Mouse cells and human CSC were distinguished by staining with an anti-mouse MHC class I antibody (Abcam) and a PE- or APC-labeled goat anti-human IgG2a (BioLegend) antibody. Dead cells were removed with the 7-AAD Viability Dye (Beckman Coulter).

[2] = tested on: Lgr5-positive colon cancer stem cells; experiment: Cell growth, Cell Counting Kit-8, adherent cancer stem cells; settings: 3-day culture; for growth of Lgr5-positive colon cancer stem cells: PLR123 and PLR59 cells
Experimental: (§1) To determine whether or not the Wnt signaling promotes the growth of colon cancer stem cells, the inventors examined the effects of FH535 (β-catenin/TCF inhibitor) and cardamonin (Wnt/β-catenin inhibitor that induces β-catenin degradation) on the growth of colon cancer stem cells. Cell growth was evaluated as described below. Floating and adherent cancer stem cells were seeded at about 100 and 1×10^4 cells per well, respectively, in 96-well plates. On days 0 and 3, living cells were counted using the Cell Counting Kit-8 assay (Doujindo) according to the manufacturer's protocol. The average absorbance on day 0 was expressed as 100%. For chemical sensitivity analysis, floating and adherent cancer stem cells were seeded at about 100 and 1×10^4 cells per well in 96-well plates, respectively. […] After 3-day culture in the presence of a drug, Cell Counting Kit-8 was added to the cells. The average absorbance of cells exposed to DMSO or the medium alone was expressed as 100%. All the experiments were conducted in triplicate.

[3] = tested on: Lgr5-negative colon cancer stem cells; experiment: Cell growth, Cell Counting Kit-8, floating cancer stem cells; settings: 3-day culture; for growth and survival of Lgr5-negative colon cancer stem cells: 10 μg/ml
Experimental: as §1

O=c1[nH]cc(F)c(=O)[nH]1 [5-FU]
Lgr5 status of drug-resistant cells [1]: negative for Lgr5 | growth of Lgr5-positive colon cancer stem cells ([2]; 10 μg/ml): significantly inhibited the growth | growth and survival of Lgr5-negative colon cancer stem cells ([3]; PLR123 and PLR59 cells): had no effect on the growth and survival

Cc1cc([N+](=O)[O-])ccc1NS(=O)(=O)c1cc(Cl)ccc1Cl [FH535]
growth of Lgr5-positive colon cancer stem cells ([2]; 50 μM): significantly reduced the growth | growth of Lgr5-negative colon cancer stem cells ([3]; 50 μM, PLR123 and PLR59 cells): had no effect on the growth

COc1cc(O)cc(O)c1C(=O)/C=C/c1ccccc1 [cardamonin]
number of living cells ([2]; 50 μM, relative to DMSO alone, Lgr5-positive colon cancer stem cells): 70% | number of living cells ([3]; 50 μM, relative to DMSO alone, Lgr5-negative colon cancer stem cells): about 50%

CCc1c2c(nc3ccc(OC(=O)N4CCC(N5CCCCC5)CC4)cc13)-c1cc3c(c(=O)n1C2)COC(=O)[C@]3(O)CC [irinotecan]
growth of Lgr5-positive colon cancer stem cells ([2]; 10 μg/ml): significantly inhibited the growth | growth and survival of Lgr5-negative colon cancer stem cells ([3]; PLR123 and PLR59 cells): had no effect on the growth and survival
